According to patent US10968225B2, “Compounds and compositions for the treatment of cystic fibrosis” (Fondazione Istituto Italiano Di Tecnologia, priority 2017, dated 2021):

Key:
Type in all cases: cell-based
mutant CFTR = molecular target: T1, mutant CFTR (Homo sapiens, UniProt P13569, DEL508-508); test: Fluorescence (HS-YFP) assay for CFTR activity, corrector assay; settings: CFBE41o- and FRT cells with stable expression of mutant CFTR, read-out: activity (EC50)
T1 construct: expressed in transfected cells
T1 sequence (P13569 with tags, fused parts or gaps DEL508-508): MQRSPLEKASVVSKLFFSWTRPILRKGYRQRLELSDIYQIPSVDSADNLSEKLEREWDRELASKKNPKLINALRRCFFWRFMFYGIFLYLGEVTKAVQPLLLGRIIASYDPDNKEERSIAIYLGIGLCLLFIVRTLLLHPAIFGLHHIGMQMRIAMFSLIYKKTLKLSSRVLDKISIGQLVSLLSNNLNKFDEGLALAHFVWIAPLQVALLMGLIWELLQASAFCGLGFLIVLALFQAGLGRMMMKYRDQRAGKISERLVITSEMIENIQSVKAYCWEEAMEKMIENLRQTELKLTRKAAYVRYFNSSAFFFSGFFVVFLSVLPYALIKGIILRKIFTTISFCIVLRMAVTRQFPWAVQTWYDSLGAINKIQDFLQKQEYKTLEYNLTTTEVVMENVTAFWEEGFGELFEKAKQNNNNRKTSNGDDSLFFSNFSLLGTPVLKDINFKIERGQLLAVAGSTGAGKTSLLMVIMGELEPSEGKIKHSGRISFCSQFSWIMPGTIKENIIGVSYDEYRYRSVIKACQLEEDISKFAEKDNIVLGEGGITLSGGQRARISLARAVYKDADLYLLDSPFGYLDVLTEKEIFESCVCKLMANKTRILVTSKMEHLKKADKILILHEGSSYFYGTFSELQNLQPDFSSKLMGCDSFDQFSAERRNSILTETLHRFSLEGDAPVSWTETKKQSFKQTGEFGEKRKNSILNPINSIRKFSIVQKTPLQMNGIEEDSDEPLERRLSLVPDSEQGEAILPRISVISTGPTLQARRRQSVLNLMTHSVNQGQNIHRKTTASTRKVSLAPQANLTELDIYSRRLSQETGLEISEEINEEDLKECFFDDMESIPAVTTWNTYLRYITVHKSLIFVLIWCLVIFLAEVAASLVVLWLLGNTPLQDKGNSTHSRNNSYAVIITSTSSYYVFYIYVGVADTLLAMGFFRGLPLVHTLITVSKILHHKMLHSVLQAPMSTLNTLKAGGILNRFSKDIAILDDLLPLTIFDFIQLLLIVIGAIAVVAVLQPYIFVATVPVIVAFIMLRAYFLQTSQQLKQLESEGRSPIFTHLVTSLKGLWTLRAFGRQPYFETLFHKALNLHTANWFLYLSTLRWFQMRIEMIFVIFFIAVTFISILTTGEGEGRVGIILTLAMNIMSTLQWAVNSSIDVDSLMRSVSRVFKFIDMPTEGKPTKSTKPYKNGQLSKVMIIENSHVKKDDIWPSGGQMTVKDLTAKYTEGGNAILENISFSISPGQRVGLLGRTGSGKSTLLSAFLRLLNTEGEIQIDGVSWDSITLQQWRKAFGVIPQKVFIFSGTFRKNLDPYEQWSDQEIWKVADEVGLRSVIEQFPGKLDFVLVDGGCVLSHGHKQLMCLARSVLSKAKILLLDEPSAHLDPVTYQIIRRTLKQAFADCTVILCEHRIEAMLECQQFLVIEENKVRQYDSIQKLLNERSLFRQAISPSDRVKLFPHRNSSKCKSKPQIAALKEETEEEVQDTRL

F508del-CFTR [1] = molecular target: T2, F508del-CFTR (Homo sapiens, UniProt P13569, DEL508-508); test: Transepithelial electrical conductance (TEEC) in FRT cells; design: expressed in transfected cells; host or cells: FRT cells; settings: compounds tested at 5.0 µM; FRT cells expressing F508del-CFTR; 24 hrs incubation; forskolin and genistein stimulation minus PPQ-102 block
T2 sequence (P13569 with tags, fused parts or gaps DEL508-508): as above
Description: Transepithelial Electrical Conductance (TEEC)
FRT cells expressing F508del-CFTR were plated on HTS Transwell-24 well permeable supports (Code 3379, Corning Life Sciences) at a density of 200,000 cells/well. After six days, cells were incubated for 24 hrs with test correctors, vehicle, or VX-809. Compounds were dissolved in both basolateral (800 μL) and apical (300 μL) culture medium. After treatment, the culture medium was removed and replaced on both sides with a saline solution containing (in mM): 130 NaCl, 2.7 KCl, 1.5 KH2PO4, 1 CaCl2, 0.5 MgCl2, 10 glucose, 10 Na-Hepes (pH 7.4). The basolateral and apical side received 800 μL and 100 μL, respectively. The 24-well tray with cells was placed on a block heater (SBH 130D, Stuart) to keep the temperature at 37° C. during the entire experiment. After 10 min, the basal transepithelial electrical resistance (TEER) across each layer of FRT cells was measured with a STX100C electrode pair connected to an EVOM2 voltohmeter (World Precision Instruments). To stimulate F508del-CFTR, each well received (apical side) 50 μL of saline solution containing 60 μM forskolin and 150 μM genistein (final concentrations: 20 μM forskolin, 50 μM genistein). Forskolin was also pipetted in the basolateral medium to obtain the 20 μM concentration. After 10 min TEER was measured again in each well. To block F508del-CFTR function, the inhibitor PPQ-102 was used at the final concentration of 30 μM. To achieve the desired concentration, 75 μL of the apical solution in each well was replaced with an equal volume of saline solution containing 20 μM forskolin, 50 μM genistein, and 60 μM PPQ-102. After further 10 min, the transepithelial electrical resistance was measured. All values of TEER were converted to transepithelial electrical conductance (TEEC) using the formula TEEC=1/TEER. The parameter to indicate activity of F508del-CFTR in each well (ΔTEEC) was calculated from the difference in TEEC measured after maximal stimulation of F508del-CFTR with forskolin and genistein and after block with PPQ-102.
Corrector activities obtained on selected compounds tested at 5.0 µM (expressed as ΔTEEC values) are illustrated in table 2, wherein +: ΔTEEC<2000 µS; ++: 2000 µS<ΔTEEC<3000[…]S; +++: ΔTEEC>3000 µS.

F508del-CFTR [2] = molecular target: T2, F508del-CFTR; test: Short-circuit current recordings on human bronchial epithelial cells; design: Human bronchial epithelial (HBE) cells obtained from CF patients (F508del/F508del genotype); endogenous in cells; host or cells: primary human bronchial epithelial cells from CF patients, F508del/F508del; settings: compounds tested at 1.0 µM; HBE cells from CF patients (F508del/F508del); 24 hrs treatment; CPT-cAMP plus VX-770 minus CFTRinh-172
Description: Short-Circuit Current Recordings on Human Bronchial Epithelial Cells
Human bronchial epithelial (HBE) cells obtained from CF patients (F508del/F508del genotype) were plated on Snapwell inserts (Code 3801, Corning Life Sciences) at a density of 500,000 cells per insert. Cells were cultured for two weeks in a differentiating medium whose compositions has been previously described (Scudieri et al., J Physiol 590:6141-6155, 2012). For the first week, the medium was kept on both apical and basolateral sides of inserts (submerged condition). For the second week, the apical medium was removed (air-liquid condition, ALC). To test the activity of correctors, cells were treated for 24 hrs with compounds dissolved in the basolateral medium. After treatment, Snapwell inserts carrying differentiated bronchial epithelia were mounted in a vertical chamber resembling an Ussing system with internal fluid circulation. Both apical and basolateral hemichambers were filled with 5 mL of a Krebs bicarbonate solution containing (in mM): 126 NaCl, 0.38 KH2PO4, 2.13 K2HPO4, 1 MgSO4, 1 CaCl2, 24 NaHCO3, and 10 glucose. Both sides were continuously bubbled with a gas mixture containing 5% CO2-95% air and the temperature of the solution was kept at 37° C. The transepithelial voltage was short-circuited with a voltage-clamp (DVC-1000, World Precision Instruments) connected to the apical and basolateral chambers via Ag/AgCl electrodes and agar bridges (1 M KCl in 1% agar). The offset between voltage electrodes and the fluid resistance were canceled before experiments. The short-circuit current was recorded with a PowerLab 4/25 (ADInstruments) analogical to digital converter connected to a Macintosh computer. […] The difference between the current measured with CPT-cAMP plus potentiator and the current remaining after CFTRinh-172 treatment ([…]ICFTR) was taken as the parameter reflecting F508del-CFTR expression in the apical membrane.
Activities of selected compounds on HBE cells tested at 1.0 µM (expressed as […]ICFTR) are illustrated in table 3 wherein +: […]ICFTR<2.0 µA; ++: 2 μA<[…]ICFTR<3.0 μA; +++: […]ICFTR>3.0 µA.

| Structure (SMILES) | EC50 (mutant CFTR) [nM] | Corrector activity (expressed as ΔTEEC values) (F508del-CFTR [1]) | activity on HBE cells (expressed as […]ICFTR) (F508del-CFTR [2]) |
| --- | --- | --- | --- |
| CN(C(=O)c1cccc(-n2nc(C(F)(F)F)c3c2CC2CCC3N2C(=O)OC(C)(C)C)c1)c1ccc2c(c1)OCO2 (racemic) [Compound 018, tert-Butyl 1-(3-(benzo[d][1,3]dioxol-5-yl(methyl)carbamoyl)phenyl)-3-(trifluoromethyl)-1,4,5,6,7,8-hexahydro-4,7-epiminocyclohepta[c]pyrazole-9-carboxylate] | < 1000 | +++ (ΔTEEC>3000 µS) | +++ ([…]ICFTR>3.0 µA) |
| CN(C(=O)c1cccc(-n2nc(C(F)(F)F)c3c2CCN(C(=O)Nc2ccccc2)C3)c1)c1ccc2c(c1)OCO2 [Compound 010, 1-[3-[1,3-Benzodioxol-5-yl(methyl)carbamoyl]phenyl]-N-phenyl-3-(trifluoromethyl)-6,7-dihydro-4H-pyrazolo[4,3-c] pyridine-5-carboxamide] | < 1000 | ++ (2000 µS<ΔTEEC<3000[…]S) | ++ (2 μA<[…]ICFTR<3.0 μA) |
| CN1CCc2c(c(C(F)(F)F)nn2-c2cccc(C(=O)N(C)c3ccc4c(c3)OCO4)c2)C1 [Compound 003, N-(1,3-Benzodioxol-5-yl)-N-methyl-3-[5-methyl-3-(trifluoromethyl)-6,7-dihydro-4H-pyrazolo[4,3-c]pyridin-1-yl]benzamide] | < 1000 | ++ (2000 µS<ΔTEEC<3000[…]S) | ++ (2 μA<[…]ICFTR<3.0 μA) |
| CN(C(=O)c1cccc(-n2nc(C(F)(F)F)c3c2CCN(C(=O)C(C)(C)C)C3)c1)c1ccc2c(c1)OCO2 [Compound 011, N-(1,3-Benzodioxol-5-yl)-3-[5-(2,2-dimethylpropanoyl)-3-(trifluoromethyl)-6,7-dihydro-4H-pyrazolo[4,3-c]pyridin-1-yl]-N-methyl-benzamide] | < 1000 | ++ (2000 µS<ΔTEEC<3000[…]S) | ++ (2 μA<[…]ICFTR<3.0 μA) |
| COC(=O)c1cccc(CN2CCc3c(c(C(F)(F)F)nn3-c3cccc(C(=O)N(C)c4ccc5c(c4)OCO5)c3)C2)c1 [Compound 020, Methyl 3-[[1-[3-[1,3-benzodioxol-5-yl(methyl)carbamoyl]phenyl]-3-(trifluoromethyl)-6,7-dihydro-4H-pyrazolo[4,3-c]pyridin-5-yl]methyl]benzoate] | < 1000 | +++ (ΔTEEC>3000 µS) | ++ (2 μA<[…]ICFTR<3.0 μA) |
| CN(C(=O)c1cccc(-n2nc(C(F)(F)F)c3c2CCN(C2CCC2)C3)c1)c1ccc2c(c1)OCO2 [Compound 032, N-(1,3-Benzodioxol-5-yl)-3-[5-cyclobutyl-3-(trifluoromethyl)-6,7-dihydro-4H-pyrazolo[4,3-c]pyridin-1-yl]-N-methyl-benzamide] | < 1000 | ++ (2000 µS<ΔTEEC<3000[…]S) | ++ (2 μA<[…]ICFTR<3.0 μA) |
| CN(C(=O)c1cccc(-n2nc(C(F)(F)F)c3c2CCN(Cc2ccccc2)C3)c1)c1ccc2c(c1)OCO2 [Compound 012, N-(1,3-Benzodioxol-5-yl)-3-[5-benzyl-3-(trifluoromethyl)-6,7-dihydro-4H-pyrazolo[4,3-c]pyridin-1-yl]-N-methyl-benzamide] | < 1000 | ++ (2000 µS<ΔTEEC<3000[…]S) | + ([…]ICFTR<2.0 µA) |
| Cc1nc2cc(F)c(N(C)C(=O)c3cccc(-n4nc(C(F)(F)F)c5c4CCN(S(=O)(=O)c4c(C)noc4C)C5)c3)cc2o1 [Compound 138, 3-[5-(3,5-Dimethylisoxazol-4-yl)sulfonyl-3-(trifluoromethyl)-6,7-dihydro-4H-pyrazolo[4,3-c]pyridin-1-yl]-N-(5-fluoro-2-methyl-1,3-benzoxazol-6-yl)-N-methyl-benzamide] | < 1000 | – | – |
| CN(C(=O)c1cccc(-n2nc(C(F)(F)F)c3c2CCN(CC2CC2)C3)c1)c1ccc2c(c1)OCO2 [Compound 019, N-(1,3-Benzodioxol-5-yl)-3-[5-(cyclopropylmethyl)-3-(trifluoromethyl)-6,7-dihydro-4H-pyrazolo[4,3-c]pyridin-1-yl]-N-methyl-benzamide] | < 1000 | – | – |
| CN(C(=O)c1cccc(-n2nc(C(F)(F)F)c3c2C(Oc2cccc(C(=O)O)c2)CCC3)c1)c1ccc2c(c1)OC(F)(F)O2 (single isomer, unassigned) [Compound 188, (S) or (R)-3-[[1-[3-[(2,2-Difluoro-1,3-benzodioxol-5-yl)-methyl-carbamoyl]phenyl]-3-(trifluoromethyl)-4,5,6,7-tetrahydroindazol-7-yl]oxy]benzoic acid] | < 1000 | – | – |
